Experimental data from patent US8492426B1, “Use of carvedilol for treatment of diabetes mellitus” (priority 2012, dated 2013).

Legend:
[1] = test system: Type II diabetes mellitus patients; assay: Group 2: Type II diabetes mellitus patients uncontrolled on diet and oral medication, Carvedilol used in place of insulin; type: in vivo, human
Experimental: Data has been collected utilizing the various methods described herein and included for purposes of showing results and further exemplifying the preferred embodiments of this invention. A study was performed on two groups: Group 1 and Group 2. Both groups included patients with diabetes mellitus and a history of uncontrolled blood sugar. The patients of each group were between the ages of 40 and 85 and consisted of both males and females and various ethnicities. Group 1 consisted of patients that were already on insulin (humulin mix, novolog mix, etc.) and who were unable to control their blood sugar. The patients in Group 2 were taking oral medications, were unable to control their blood sugar, and needed insulin to regulate their disease.
Normal blood sugar levels were considered to be 120 mg % (mg % is milligram per 100 cc blood), which was equivalent to 6.0 HbA1c before meals or while fasting. After the first visit and examination, the patients' blood sugar and HbA1c levels were reviewed. […] Then patients were requested to report their blood sugar weekly. […] HbA1c levels were checked approximately 2-3 months after controlling the blood sugar.
Group 2 consisted of Type II diabetes mellitus patients who could not control their blood sugar on diet nor oral medication and would need to start insulin. Carvedilol was used in place of insulin to control blood sugar as well as other anti-diabetic oral medications. • 1. […] Sitagliptin was then discontinued and the hypoglycemia subsequently disappeared. […] The last recorded HbA1c was 6.8 • 2. patient three had poorly controlled blood sugar but managed an HbA1c of 8.0 and mean fasting glucose of 183 mg %. They were taking three oral medications: Metformin 1000 mg BID, Sitagliptin 100 mg daily and Sulfonylurea. They were started on Carvedilol and their blood sugar came down to 90 mg %. […] Their HbA1c level is 6.5 • 3. […] They were prescribed Metformin and Glyburide Micro. They were also given Bayetta, however their blood sugar remained uncontrolled. […] Their HbA1c level is 8.4 • 4. […] The patient also suffered from severe Peripheral Neuritis. Their HbA1c was 10.2 in December 2011. The patient was taking Metformin 1000 mg twice a day, Sitagliptin 100 mg daily and Glyburide Micro 6 mg twice a day. The patient was started on Carvedilol in February 2012. Their HbA1c in late March 2012 was down to 8.2 with a mean plasma glucose of 189 mg %. […] Their HbA1c is now 7.8. • 5. […] They have been on Janumet […] twice a day, Glymeperide which was changed to Glyburide Micro 3 mg twice daily. […] Carvedilol was added to their regimen and their blood sugar was recently reported at 81 mg %. […] Their HbA1c level is 7.1

[2] = test system: patients with diabetes mellitus already on insulin; assay: Group 1: diabetes mellitus patients already on insulin with uncontrolled blood sugar, prescribed Carvedilol with diet; type: in vivo, human
Experimental: Data has been collected utilizing the various methods described herein and included for purposes of showing results and further exemplifying the preferred embodiments of this invention. A study was performed on two groups: Group 1 and Group 2. Both groups included patients with diabetes mellitus and a history of uncontrolled blood sugar. The patients of each group were between the ages of 40 and 85 and consisted of both males and females and various ethnicities. Group 1 consisted of patients that were already on insulin (humulin mix, novolog mix, etc.) and who were unable to control their blood sugar. The patients in Group 2 were taking oral medications, were unable to control their blood sugar, and needed insulin to regulate their disease. Normal blood sugar levels were considered to be 120 mg % (mg % is milligram per 100 cc blood), which was equivalent to 6.0 HbA1c before meals or while fasting. After the first visit and examination, the patients' blood sugar and HbA1c levels were reviewed. […] Then patients were requested to report their blood sugar weekly. […] HbA1c levels were checked approximately 2-3 months after controlling the blood sugar. Group 1 data is presented below for patients with Type II diabetes mellitus who were already taking insulin and were unable to control their blood sugar. The data includes blood sugar and HbA1c levels before and after taking Carvedilol. • 1. JBM-65-M was first seen in January 2012. Their HbA1c was more than 9.0 and fasting plasma glucose was 282 mg %. They were taking 35 units at night of Lente insulin and regular insulin before each meal at a dosage of 10-30 units, on a sliding scale. They began taking an effective dosage of Carvedilol with a diet in February 2012. […] BS-81-F was taking 36 units of Humulin N twice a day in February 2012. Their HbA1c was 7.6 and mean plasma glucose was 171 mg %. They began taking an effective dosage of Carvedilol immediately. In April 2012 their HbA1c was 6.5 and their mean plasma glucose was 140 mg %. […] patient four is a Type I diabetic with two episodes of myocardial infarction and four stents post Percutaneous Transluminal Coronary Angioplasty (PTCA). In January 2012 […] HbA1c was 8.2 with a mean […] glucose of 203 mg %. They were taking 400 units of Novolog mix 70/30 in two divided doses. After Carvedilol and an improved diet, the dose of insulin has been reduced to a total of 90 units a day in two divided doses. Their HbA1c is the same but recent blood sugar was 134 mg %. • 4. […] They were taking Novolog 70/30 40 units twice a day. They were started on Carvedilol with an improved diet. […] Currently they are reporting a plasma blood glucose below 120 mg %. • 5. […] They were taking Novlog mix 70/30 20 units twice a day. […] Group 2

For `COc1ccccc1OCCNCC(O)COc1cccc2[nH]c3ccccc3c12` (racemic) [Carvedilol, (±)-1-(Carbazol-4-yloxy-3-[[2-(o-methoxyphenoxy-)ethyl]amino]-2-propanol], the “other anti-diabetic medication after Carvedilol” value (shortened to “other anti-diabetic medication”) ([1]; patient -76) was “able to stop Glyburide Micro”, the blood sugar ([1]; patient -76, Carvedilol added to regimen, before: 273 mg % after cortisone shot, mean plasma glucose 163 mg %) was 81 mg % and the HbA1c ([1]; patient -76, on Carvedilol, before: 8.3) was 7.1. For the same compound, the HbA1c ([1]; patient eight, started Carvedilol recently, before: 8.5) was 8.4, the blood sugar ([1]; patient eight, started Carvedilol recently, before: fasting plasma glucose 197 mg %, uncontrolled on Metformin, Glyburide Micro, Bayetta) was “reached normal levels” and the adverse effect ([1]; patient one, Carvedilol taken together with Sitagliptin, disappeared after Sitagliptin was discontinued) was “hypoglycemia”. The “last recorded HbA1c” value ([1]; patient one, Carvedilol, Sitagliptin discontinued) was 6.8, the blood sugar control ([1]; patient one, Carvedilol, Sitagliptin discontinued, before: blood sugar 200 mg %) was “controlled the patient's blood sugar” and the “other anti-diabetic medication” value ([1]; patient six) was “stopped taking Glyburide Micro”. The mean plasma glucose ([1]; patient six, late March 2012, Carvedilol since February 2012) was 189 mg %, the HbA1c ([1]; patient six, late March 2012, Carvedilol since February 2012, before (December 2011): 10.2) was 8.2 and the blood sugar ([1]; patient six, more recently reported) was 95 mg %. For the same compound, the HbA1c ([1]; patient six, now, after stopping Glyburide Micro) was 7.8, the “other anti-diabetic medication” value ([1]; patient three) was “discontinued use of Sitagliptin” and the blood sugar ([1]; patient three, Carvedilol added to Metformin, Sitagliptin, Sulfonylurea, before: mean fasting glucose 183 mg %) was 90 mg %. The HbA1c ([1]; patient three, on Carvedilol, Sitagliptin discontinued, before: 8.0) was 6.5, the fasting plasma glucose ([2]; patient five, April 2012, Carvedilol with diet since February 2012, before: 282 mg %) was 122 mg % and the HbA1c ([2]; patient five, April 2012, Carvedilol with diet since February 2012, before: more than 9.0) was 5.5. The “insulin use after Carvedilol” value ([2]; patient five, by April 2012, before: 35 units Lente at night plus 10-30 units regular insulin before each meal) was “taken off insulin completely”, the “dose of insulin after Carvedilol” value ([2]; patient four, Type I diabetic, Carvedilol and improved diet, two divided doses, before: 400 units Novolog mix 70/30) was 90 units a day and the HbA1c ([2]; patient four, Type I diabetic, after Carvedilol and improved diet, before: 8.2) was “the same”. The recent blood sugar ([2]; patient four, Type I diabetic, after Carvedilol and improved diet, before: mean plasma glucose 203 mg %) was 134 mg %, the mean plasma glucose ([2]; patient nine, April 2012, Carvedilol since February 2012, before: 171 mg %) was 140 mg % and the HbA1c ([2]; patient nine, April 2012, Carvedilol since February 2012, before: 7.6) was 6.5. For the same compound, the “insulin use after Carvedilol” value ([2]; patient nine, by April 2012, before: 36 units Humulin N twice a day) was “taken off of insulin completely”, the plasma glucose ([2]; patient seven, renal failure, after five weeks on Carvedilol, off insulin, before: 249 mg %) was “below 120 mg %” and the “HbA1c corresponding to plasma glucose” value ([2]; patient seven, after five weeks on Carvedilol, before: 10.3) was 6.0. For the same compound, the “insulin use after Carvedilol” value ([2]; patient seven, after five weeks on Carvedilol, before: Novlog mix 70/30 20 units twice a day) was “taken off insulin”, the HbA1c ([2]; patient two, April 2012, Carvedilol with improved diet, off insulin, before (December 2011): 11.4) was 8.6 and the plasma blood glucose ([2]; patient two, April 2012, before: 280 mg %) was 200 mg %. For the same compound, the “insulin use after Carvedilol” value ([2]; patient two, before: Novolog 70/30 40 units twice a day) was “came off of insulin” and the plasma blood glucose ([2]; patient two, currently reported) was “below 120 mg %”.
